Entries after “also recorded” stand apart in the source; their conditions may differ. Bridge positions count the residues as written; N and C are the ends. Ends that are not written are not given here. Peptide text beside a SMILES is read from it.
Columns and labels:
rASIC1a = target: T1, rASIC1a (Rattus norvegicus, UniProt P55926); experiment: Two-electrode voltage clamp (TEVC) on Xenopus laevis oocytes expressing homomeric rASIC1a; type: cell-based; conditions: for Rapidly reversible inhibition: Table 1; for Rapidly reversible inhibition / Reversibility of inhibition (in words): upon washout; for % Residual Current: current remaining at saturating peptide concentrations; for Potency compared to wild-type Hi1a (in words): point mutants; for Extent of inhibition of ASIC1a currents (full or incomplete): at saturating concentrations
T1 construct: expressed in transfected cells; host or cells: Xenopus laevis oocytes injected with cRNA
T1 sequence (P55926 1-526): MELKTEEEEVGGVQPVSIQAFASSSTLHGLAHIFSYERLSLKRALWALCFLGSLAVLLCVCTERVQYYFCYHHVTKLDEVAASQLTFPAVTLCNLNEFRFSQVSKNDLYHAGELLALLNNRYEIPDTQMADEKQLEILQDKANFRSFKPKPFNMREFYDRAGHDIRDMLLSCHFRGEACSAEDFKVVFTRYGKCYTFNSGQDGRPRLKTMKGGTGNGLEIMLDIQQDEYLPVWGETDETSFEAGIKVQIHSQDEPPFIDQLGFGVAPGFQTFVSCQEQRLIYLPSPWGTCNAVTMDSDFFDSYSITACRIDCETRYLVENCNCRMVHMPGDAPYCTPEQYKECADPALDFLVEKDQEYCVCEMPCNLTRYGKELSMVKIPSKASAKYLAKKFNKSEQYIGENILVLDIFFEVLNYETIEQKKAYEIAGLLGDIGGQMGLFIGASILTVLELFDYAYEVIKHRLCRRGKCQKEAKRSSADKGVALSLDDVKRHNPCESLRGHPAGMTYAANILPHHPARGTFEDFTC
Description: The ability of the peptides of the invention to modulate ASIC currents was assessed using two-electrode voltage clamp (TEVC) electrophysiology experiments performed on Xenopus laevis oocytes expressing homomeric ASIC channels. Xenopus oocytes are widely used as an expression system for functional characterisation of ion channel modulators. TEVC allows measurement of whole-cell ion channel currents while controlling the membrane potential.
Oocytes were harvested from anaesthetised female X. laevis then defolliculated by treatment with collagenase (Sigma, type I). Oocytes were injected with in vitro transcribed ASIC cRNA (capped RNA). Oocytes were kept at 17-18° C. in ND96 solution containing 96 mM NaCl, 2 mM KCl, 1.8 mM CaCl2, 2 mM MgCl2, 5 mM HEPES, 5 mM pyruvic acid, 50 μg/ml gentamicin (pH 7.4), and fetal horse serum (2.5%), and experiments were performed at room temperature (21-22° C.) 1-3 days after cRNA injection. Oocytes were clamped at −60 mV (Warner OC-725C oocyte clamp; Warner Instruments, CT, USA) using two standard glass microelectrodes of 0.5-2 MΩ resistance when filled with 3 M KCl. Data acquisition and analysis were performed using pCLAMP software, Version 10 (Axon Instruments, CA, USA). Currents were elicited by a drop in pH from 7.45 to 6.0 using a microperfusion system to allow rapid solution exchange. All experiments were performed using ND96 solution spiked with 0.1% BSA in order to minimise adsorption of peptides to plastic tubing.

ASIC1a = conditions: McCarthy et al., 2015; cited from earlier work
[1] = tested on: spontaneously hypertensive rats (SHR); experiment: Focal reperfusion (endothelin-1) stroke model in conscious SHR, i.c.v. administration; type: in vivo, rat; conditions: single i.c.v. dose two hours after stroke; Hi1a 2 ng/kg, PcTx1 and mutant 1 ng/kg; 72 h post-stroke
Description: The neuroprotective efficacy of Hi1a was assessed in a rat model of focal cerebral ischemia. In vivo experiments were conducted using a focal reperfusion model of stroke in conscious spontaneously hypertensive rats (SHR) as previously reported (McCarthy et al., Neuropharmacology 99, 650-657, 2015). Two 23-gauge stainless steel guide cannulae were stereotaxically implanted into anaesthetised animals (ketamine 75 mg/kg; xylazine 10 mg/kg; intraperitoneal) 5 days prior to stroke induction. The first cannula was implanted 3 mm dorsal to the right middle cerebral artery for stroke induction. The second cannula was implanted into the left lateral ventricle for drug administration. […]
Compared to models of middle cerebral artery occlusion (MCAO) achieved by surgical exposure of the artery, this model has the advantage of minimal surgical intervention in the brain, and the stroke is induced in the absence of anaesthetics, which can confound the results of drug studies (Callaway et al., 1999; Sharkey et al., 1993). Stroke-induced motor deficit was assessed by counting the number of foot faults made while rats traversed a gradually narrowing ledged beam (McCarthy et al., Stroke 40, 1482-1489, 2009). […] For the neurological score, postural abnormalities were assessed by elevating the rat by the tail above a flat surface and grading the severity of thorax twisting and the angle of forelimb extension. […]

Compound | IC50 (rASIC1a) [nM] | Rapidly reversible inhibition (rASIC1a) | % Residual Current (rASIC1a) [%] | Extent of inhibition of ASIC1a currents (full or incomplete) (rASIC1a) | Reversibility of inhibition (in words) (rASIC1a) | also measured
SNECIRKWKSCVDRKNDCCEGLECYKRRHSFEVCVPIPGFCLVKWKQCDGRERDCCAGLECWKRSGNKSSVCAPIT (disulfide 4-19, 11-24, 18-34, 41-56, 48-61, 55-72) [Hi1a L8K] | 0.976 | No | 30 | – | – | Potency compared to wild-type Hi1a (in words) (rASIC1a): little effect
PcTx1 mutant iso 2: Double-mutant PcTx1 analogue (R27A/V32A) that is inactive against ASIC1a (EDCIPKWKGCVNRHGDCCEGLECWKRARSFEACVPKTPKT; ends and bridges not checked; cysteine pairing not given here; UniProt P60514 1-40, looked up, variant R27A V32A) | – | – | – | – | – | Activity against ASIC1a (ASIC1a): inactive; Infarct size in cortical (penumbral) and striatal (core) regions [1]: completely ineffective; also recorded: no effect
SEDCIPKWKGCVNRHGDCCEGLECWKRRRSFEVCVPKTGDCIPKWKGCVNRHGDCCEGLECWKRRRSFEVCVPKTPKT (disulfide 4-19, 11-24, 18-34, 41-56, 48-61, 55-71) [EP 2] | 215 | No | 0 | full inhibition | slowly reversible | Fold increase in IC50 (decrease in potency) relative to wild-type Hi1a (rASIC1a): ~500 fold
Hi1a_C: C-terminal ICK domain of Hi1a expressed separately in E. coli, SEQ ID NO:21 (IPGFCLVKWKQCDGRERDCCAGLECWKRSGNKSSVCAPIT; listed as Hadronyche infensa) | – | – | – | – | – | Effect on current (rASIC1a; at 1 μM): minor potentiation; Inhibition (rASIC1a; at 10 μM): negligible inhibition; Inhibitory effect (rASIC1a; up to 30 μM): no observed inhibitory effect
SNECIRKWLSCVDRKNDCCEGLECWKRRHSFEVCVPIPGFCLVKWKQCDGRERDCCAGLECWKRSGNKSSVCAPIT (disulfide 4-19, 11-24, 18-34, 41-56, 48-61, 55-72) [Hi1a Y24W] | 0.537 | No | 0 | full inhibition | – | –
CC[C@H](C)[C@@H]1NC(=O)[C@@H](NC(=O)[C@H](CCC(=O)O)NC(=O)[C@H](CC(N)=O)NC(=O)[C@@H](N)CO)CSSC[C@@H]2NC(=O)[C@@H]3CSSC[C@@H](C(=O)N[C@H](C(=O)N4CCC[C@H]4C(=O)N[C@H](C(=O)N4CCC[C@H]4C(=O)O)[C@@H](C)CC)C(C)C)NC(=O)[C@H](C(C)C)NC(=O)[C@H](CCC(=O)O)NC(=O)[C@H](Cc4ccccc4)NC(=O)[C@H](CO)NC(=O)[C@H](Cc4c[nH]cn4)NC(=O)[C@H](CCCNC(=N)N)NC(=O)[C@H](CCCNC(=N)N)NC(=O)[C@H](CCCCN)NC(=O)[C@H](Cc4ccc(O)cc4)NC(=O)[C@H](CSSC[C@H](NC(=O)[C@H](CO)NC(=O)[C@H](CC(C)C)NC(=O)[C@H](Cc4c[nH]c5ccccc45)NC(=O)[C@H](CCCCN)NC(=O)[C@H](CCCNC(=N)N)NC1=O)C(=O)N[C@@H](C(C)C)C(=O)N[C@@H](CC(=O)O)C(=O)N[C@@H](CCCNC(=N)N)C(=O)N[C@@H](CCCCN)C(=O)N[C@@H](CC(N)=O)C(=O)N[C@@H](CC(=O)O)C(=O)N3)NC(=O)[C@H](CCC(=O)O)NC(=O)[C@H](CC(C)C)NC(=O)CNC(=O)[C@H](CCC(=O)O)NC2=O [Hi1a_N] (H-SNECIRKWLSCVDRKNDCCEGLECYKRRHSFEVCVPIP-OH; disulfide 4-19, 11-24, 18-34) | – | – | – | fully inhibit | fully reversible | Fold lower potency than PcTx1 or full-length Hi1a (rASIC1a): ~1000 fold
SEDCIPKWKGCVNRHGDCCEGLECWKRRRSFEVCVPKTPKTIPGFCLVKWKQCDGRERDCCAGLECWKRSGNKSSVCAPIT (disulfide 4-19, 11-24, 18-34, 46-61, 53-66, 60-77) [PcTx1/Hi1a_C] | 1.3 | No | ~35 | incomplete inhibition | slowly reversible | Fold increase in IC50 (decrease in potency) relative to wild-type Hi1a (rASIC1a): 3 fold
SNECIRKWLSCVDRKNDCCEGLECYKRRHSFEVCVPGGGGGGFCLVKWKQCDGRERDCCAGLECWKRSGNKSSVCAPIT (disulfide 4-19, 11-24, 18-34, 44-59, 51-64, 58-75) [EP 3] | > 4 | – | 80 | – | – | Inhibition of rASIC1a currents (rASIC1a; applied at up to 1 μM): ≤ 20%
SEDCIPKWKGCVNRHGDCCEGLECWKRRRSFEVCVPKTEDCIPKWKGCVNRHGDCCEGLECWKRRRSFEVCVPKTPKT (disulfide 4-19, 11-24, 18-34, 41-56, 48-61, 55-71) [EP 1] | 64 | No | 0 | full inhibition | slowly reversible | Fold increase in IC50 (decrease in potency) relative to wild-type Hi1a (rASIC1a): ~200 fold
SNECIRKWLSCVDRKNDCCEGLECYKRRRSFEVCVPIPGFCLVKWKQCDGRERDCCAGLECWKRSGNKSSVCAPIT (disulfide 4-19, 11-24, 18-34, 41-56, 48-61, 55-72) [Hi1a H28R] | 0.115 | No | 20 | – | – | Potency compared to wild-type Hi1a (in words) (rASIC1a): slightly increased potency
QECIAKWKSCAGRKLDCCEGLECWKRRWGHEVCVPITQKIFCLEKWKSCFERKYDCCEELECWERRGNKHPVCAPKQ (disulfide 3-18, 10-23, 17-33, 42-57, 49-62, 56-73) [Hi1d] | – | Yes | – | complete | – | –

Reference: patent US10881712B2, “Neuroprotective agents derived from spider venom peptides” (THE UNIVERSITY OF QUEENSLAND, priority 2015, dated 2021)
